According to patent US20210371413A1, “POLYCYCLIC AMIDES AS CYTOTOXIC AGENTS” (FEMTOGENIX LIMITED, priority 2018, published 2021):
≈ marks a conversion by molar mass, not a printed value. Read-outs that look alike come from different tables or passages of the source.

Assays:
Assay type in all cases: cell-based
U138-MG (Glioblastoma) = assay: In vitro cytotoxicity, MTT assay, U138-MG; conditions: Homo sapiens, read-out: Cytotoxicity
Protocol: (§1) The in vitro cytotoxicity of a selection of compounds were evaluated in a panel of cell lines using the standard MTT assay for a 72 hour incubation period (Table 2). Free payloads produced cytotoxicities in the nanomolar range.
(§2) Tumor cell lines were maintained in RPMI1640 medium supplemented with 10% heat-inactivated fetal bovine serum, 2 mM L-glutamine and 1 mM sodium pyruvate. 1800 cells per well were seeded in a volume of 180 μl in a 96-well flat bottom polystyrene plate. The cells were allowed to adhere overnight at 37° C. in a CO2 incubator. Ligands were initially formulated in DMSO, and stocks stored at −80° C. They were then further formulated at lox concentration in RPMI1640 medium. 20 ul of diluted samples were added into each treatment well. On each plate, blank wells with no cells, and untreated wells containing cells, were included. Plates were then cultured at 37° C. in a CO2 incubator for 72 hrs. Cytotoxicity was evaluated using a tetrazolium salt-based assay, the MTT assay. After 72 hours, the supernatant was removed from each well and 200 μl of a sterile filtered 500 μg/ml MTT solution in water added to each well. The plates were then incubated at 37° C. in a CO2 incubator for 4 hrs. The supernatant was then removed and the formazan crystals formed solubilized by adding 150 μl of DMSO to each well. The plate was then read on a plate reader at 540 nm, and percentage cell survival calculated as follows: ((mean absorbance treated wells at concentration x−mean absorbance blank wells)+(mean absorbance untreated wells at concentration x−mean absorbance blank wells))×100. Data were plotted as concentration in nM vs. % cell survival in Microsoft Excel, and IC50 values (concentration where cell survival is reduced by a half) were determined from the graph.

A431 (Skin) = assay: In vitro cytotoxicity, MTT assay, A431; conditions: Homo sapiens, read-out: Cytotoxicity
Protocol: as §1, §2

REH (ALL) = assay: In vitro cytotoxicity, MTT assay, REH; conditions: read-out: Cytotoxicity
Protocol: as §1, §2

E. coli K12 = assay: MIC assay, E. coli K12; conditions: Escherichia coli, K12, E. coli K12 (Gram-negative), overnight (16-20 hour) incubation
Protocol: (§3) The antimicrobial activity of a selection of compounds were evaluated in a Gram-negative, Gram-positive and multi-resistant bacteria using the standard minimum inhibitory concentration (MIC) assay for an overnight (16-20 hour) incubation period. Commercially marketed antibiotics (Table 3) were used as positive controls during the study.
(§4) Mueller-Hinton broth (MH Broth) (Sigma-Aldrich; Millipore, cat. no. 70192) and Mueller-Hinton agar (MHA) (Sigma-Aldrich; Millipore, cat. no. 70191) were prepared as per manufacturer's instructions and sterilized by autoclaving. Approximately 20 mL of MHA was poured onto 15×100 mm petri dishes and allowed to set. Agar plates were then stored in plastic bags in an inverted position at 4° C.
(§5) Bacterial strains were provided in the form of a glycerol stock, stored at −80° C. For the purpose of preparation of bacterial suspension, appropriate strains were removed from −80° C. storage onto dry ice and not allowed to freeze-thaw.
(§6) Stock solutions of 16, 45 and 73 were provided in DMSO at 1.28 mg/mL concentration. From this stock solution, working solutions of the desired concentration were prepared by diluting with MHB.
(§7) MIC assay methodology was adapted from previously published work.
(§8) Bacterial isolate to be tested was streaked onto a nutrient-rich MH agar plate and incubated overnight at 37° C. in order to obtain single colonies.
(§9) After overnight incubation, single colonies with the same morphological appearance were chosen from the agar plate. These were touched using a sterile loop and transferred into a tube containing 10 mL of a MH broth. They were then mixed using vortex mixer and incubated at 35-37° C. in a shaker at 200 r.p.m. overnight.
(§10) Determination of OD600 and cfu/mL count OD600 (the optical density of a sample measured at a wavelength of 600 nm) of the overnight culture was measured. Because of the loss of linearity at OD600 values […], it was necessary to dilute the sample until the OD600 value was below 1.0. For all tested bacteria, a dilution of 1:10 was appropriate (100 μL in 900 μL broth).
(§11) The overnight culture was then diluted 1:100 using sterile tubes and MH broth (dilution: 10^−2). Serial dilution was then performed six times until dilution of 10^−8 was reached. 100 μL of dilutions 10^−7 and 10^−8 were plated onto MH agar plates in triplicate using a sterile cell spreader and incubated overnight at 37° C.
(§12) After overnight incubation, colonies on plates were counted and cfu per mL calculated. The following formula was applied: […]
For the generation of overnight cultures to be used for preparation of the bacterial suspension for MIC tests, a single colony of bacteria was selected using a sterile loop and a sterile tube with MH broth was inoculated followed by overnight incubation at […] in a shaker set to 200 r.p.m.
After overnight incubation, the OD600 was measured and the overnight culture was diluted accordingly to obtain 1×10^8 cfu/mL.
Free payload dilutions were prepared as per Table 4.
96-well sterile microtiter plates were used for MIC assay. The plate was filled with the respective free payload or positive control antibiotic concentrations in triplicate. 100 μL of broth was pipetted in the sterility control well (SC, column 12) and 50 μL in the growth control well (GC, column 11).
1×10^8 cfu/mL bacterial suspension was diluted 1:100 and 50 μL added to each well apart from SC. […]
(§13) The 96-well plates were read using a SpectraMax plate reader at an absorbance of 600 nm. […]

EMRSA 16 = assay: MIC assay, EMRSA 16; conditions: Staphylococcus aureus
Protocol: as §3, §4, §5, §6, §7, §8, §9, §10, §11, §12
(§14) After overnight incubation, the OD600 was measured and the overnight culture was diluted accordingly to obtain 1×10^8 cfu/mL. […]
as §13

[1] = system: Klebsiella pneumoniae KP4631; assay: MIC assay, Klebsiella pneumoniae KP4631
Protocol: as §3, §4, §5, §6, §7, §8, §9, §10, §11, §12, §14, §13

[2] = U138-MG (Glioblastoma), MTT, 72 hour incubation
[3] = A-431, A431 (Skin), MTT, 72 hour incubation
[4] = REH (ALL), MTT, 72 hour incubation

Compound	IC50 (U138-MG (Glioblastoma); [2]) [nM]	IC50 (A431 (Skin); [3]) [nM]	IC50 (REH (ALL); [4]) [nM]	other results
COc1cc2c(cc1OCCCC(=O)Nc1cc(C(=O)Nc3ccc(-c4cc(C(=O)Nc5ccc(N)cc5)n(C)c4)cc3)n(C)c1)NC[C@@H]1Cc3ccccc3CN1C2=O [Compound 119, (S)—N-(4-Aminophenyl)-4-(4-(4-(4-((2-methoxy-14-oxo-5,6,6a,7,12,14-hexahydrobenzo[5,6][1,4]diazepino[1,2-b]isoquinolin-3-yl)oxy)butanamido)-1-methyl-1H-pyrrole-2-carboxamido)phenyl)-1-methyl-1H-pyrrole-2-carboxamide]	266	43.1	173	–
COc1cc2c(cc1OCCCC(=O)Nc1cc(C(=O)Nc3ccc(-c4cc(C(=O)Nc5ccc(NC(C)=O)cc5)n(C)c4)cc3)n(C)c1)NC[C@@H]1CCCCN1C2=O [Compound 70, (S)—N-(4-Acetamidophenyl)-4-(4-(4-(4-((2-methoxy-12-oxo-5,6,6a,7,8,9,10, 12-octahydrobenzo[e]pyrido[1,2-a][1,4]diazepin-3-yl)oxy)butanamido)-1-methyl-1H-pyrrole-2-carboxamido)phenyl)-1-methyl-1H-pyrrole-2-carboxamide]	93.6	11.3	42.5	–
NC[C@H]1O[C@H](O[C@H]2[C@H](O)[C@@H](O[C@H]3O[C@H](CO)[C@@H](O)[C@H](N)[C@H]3O)[C@H](N)C[C@@H]2N)[C@H](O)[C@@H](O)[C@@H]1O [Kanamycin, reference compound]	–	–	–	MIC (E. coli K12; read-out: MIC): 2 to 4 µg/mL (≈ 4.13 to 8.26 µM)
COC(=O)c1cc(-c2ccc(NC(=O)c3cc(NC(=O)CCCOc4cc5c(cc4OC)C(=O)N4CCCC[C@H]4CN5)cn3C)cc2)cn1C [Compound 45, Methyl (S)-4-(4-(4-(4-((2-methoxy-12-oxo-5,6,6a,7,8,9,10,12-octahydrobenzo[e]pyrido[1,2-a][1,4]diazepin-3-yl)oxy)butanamido)-1-methyl-1H-pyrrole-2-carboxamido)phenyl)-1-methyl-1H-pyrrole-2-carboxylate]	–	–	–	MIC (E. coli K12): > 128 µg/mL; MIC (EMRSA 16): 0.5 µg/mL (≈ 0.732 µM); MIC ([1]; Klebsiella pneumoniae, KP4631): > 128 µg/mL
COc1cc2c(cc1OCCCC(=O)Nc1cc(C(=O)Nc3ccc(-c4cc(C(=O)Nc5ccc(N)cc5)n(C)c4)cc3)n(C)c1)NC[C@@H]1Cc3ccccc3N1C2=O [Compound 106, (S)—N-(4-Aminophenyl)-4-(4-(4-(4-((8-methoxy-6-oxo-11,12,12a,13-tetrahydro-6H-benzo[5,6][1,4]diazepino[1,2-a]indol-9-yl)oxy)butanamido)-1-methyl-1H-pyrrole-2-carboxamido)phenyl)-1-methyl-1H-pyrrole-2-carboxamide]	84	26.7	24	–
COC(=O)c1cc(-c2ccc(NC(=O)c3cc(NC(=O)CCCOc4cc5c(cc4OC)C(=O)N4Cc6ccccc6C[C@H]4CN5)cn3C)cc2)cn1C [Compound 121, Methyl (S)-4-(4-(4-(4-((2-methoxy-14-oxo-5,6,6a,7,12,14-hexahydrobenzo-[5,6][1,4]diazepino[1,2-b]isoquinolin-3-yl)oxy)butanamido)-1-methyl-1H-pyrrole-2-carboxamido)phenyl)-1-methyl-1H-pyrrole-2-carboxylate]	43.8	13.4	11.6	–
COc1cc2c(cc1OCCCC(=O)Nc1cc(C(=O)Nc3ccc(-c4cc(C(=O)Nc5ccccc5)n(C)c4)cc3)n(C)c1)NC[C@@H]1CCCCN1C2=O [Compound 67, (S)-4-(4-((2-Methoxy-12-oxo-5,6,6a,7,8,9,10,12-octahydrobenzo[e]pyrido-[1,2-a][1,4]diazepin-3-yl)oxy)butanamido)-1-methyl-N-(4-(1-methyl-5-(phenylcarbamoyl)-1H-pyrrol-3-yl)phenyl)-1H-pyrrole-2-carboxamide]	–	–	–	IC50 (U138-MG (Glioblastoma); U138-MG, 72 h): 57.2 nM; IC50 (A431 (Skin); A-431, 72 h): 25.9 nM; IC50 (REH (ALL); 72 h): 29.4 nM
COC(=O)c1nc2cc(NC(=O)c3nc(NC(=O)CCCOc4cc5c(cc4OC)C(=O)N4CCCC[C@H]4CN5)cn3C)ccc2o1 [Compound 61, Methyl (S)-5-(4-(4-((2-methoxy-12-oxo-5,6,6a,7,8,9,10,12-octahydrobenzo[e]pyrido[1,2-a][1,4]diazepin-3-yl)oxy)butanamido)-1-methyl-1H-imidazole-2-carboxamido)benzo[d]oxazole-2-carboxylate]	> 1000	> 1000	> 1000	–
CN[C@H](CC(C)C)C(=O)N[C@H]1C(=O)N[C@@H](CC(N)=O)C(=O)N[C@H]2C(=O)N[C@H]3C(=O)N[C@H](C(=O)N[C@H](C(=O)O)c4cc(O)cc(O)c4-c4cc3ccc4O)[C@H](O)c3ccc(c(Cl)c3)Oc3cc2cc(c3O[C@@H]2O[C@H](CO)[C@@H](O)[C@H](O)[C@H]2O[C@H]2C[C@](C)(N)[C@H](O)[C@H](C)O2)Oc2ccc(cc2Cl)[C@H]1O [Vancomycin, reference compound]	–	–	–	MIC (EMRSA 16; EMRSA 16 (Gram-positive), overnight (16-20 hour) incubation, read-out: MIC): 1 µg/mL (≈ 0.69 µM)
Gentamicin [reference compound]	–	–	–	MIC ([1]; Klebsiella pneumoniae KP4631 (multi-resistant), overnight (16-20 hour) incubation): 1 to 2 µg/mL
COc1cc2c(cc1OCCCC(=O)Nc1cc(C(=O)Nc3ccc(-c4cc(C(=O)Nc5ccncc5)n(C)c4)cc3)n(C)c1)NC[C@@H]1CCCCN1C2=O [Compound 73, (S)-4-(4-((2-Methoxy-12-oxo-5,6,6a,7,8,9,10,12-octahydrobenzo[e]pyrido-[1,2-a][1,4]diazepin-3-yl)oxy)butanamido)-1-methyl-N-(4-(1-methyl-5-(pyridin-4-ylcarbamoyl)-1H-pyrrol-3-yl)phenyl)-1H-pyrrole-2-carboxamide]	301	144	37.5	MIC (E. coli K12): 2 µg/mL (≈ 2.69 µM); MIC (EMRSA 16): 0.5 µg/mL (≈ 0.671 µM); MIC ([1]; Klebsiella pneumoniae, KP4631): 4 to 8 µg/mL (≈ 5.37 to 10.7 µM)
